This note sets out measurements from patent US6534655B1, “Indeno[1,2-C]pyrazole derivatives for inhibiting tyrosine kinase activity” (BASF Aktiengesellschaft, priority 1997, dated 2003).

A word on the IC50: it is the concentration at which inhibition is half-maximal. The melting point is the temperature of the solid-liquid transition.

Data set [1] concerns the target T1, KDR tyrosine kinase (Homo sapiens, UniProt P35968).
T1 construct: poly-His6 (N); made in house; host or cells: SF-9 insect cells (recombinant baculovirus, pVL1393)
Briefly: KDR in vitro ELISA (tyrosine kinase activity). The data set is classed as biochemical. Conditions: ATP 5 μM, 5% DMSO, poly(Glu,Tyr) 4:1 substrate. From the text: The coding sequence for the KDR intra-cellular domain (aa789-1354) was generated through PCR using cDNAs isolated from HUVEC cells. A poly-His6 sequence was introduced at the N-terminus of this protein as well. This fragment was cloned into transfection vector pVL1393 at the Xba 1 and Not 1 site. Recombinant baculovirus (BV) was generated through co-transfection using the BaculoGold Transfection reagent (PharMingen). Recombinant BV was plaque purified and verified through Western analysis. For protein production, SF-9 cells were grown in SF-900-II medium at 2×10^6/ml, and were infected at 0.5 plaque forming units per cell (MOI). Cells were harvested at 48 hours post infection.
SF-9 cells expressing (His)6KDR(aa789-1354) were lysed by adding 50 ml of Triton X-100 lysis buffer (20 mM Tris, pH 8.0, 137 mM NaCl, 10% glycerol, 1% Triton X-100, 1 mM PMSF, 10 μg/ml aprotinin, 1 μg/ml leupeptin) to the cell pellet from 1 L of cell culture. The lysate was centrifuged at 19,000 rpm in a Sorval SS-34 rotor for 30 min at 4° C. The cell lysate was applied to a 5 ml NiCl2 chelating sepharose column, equilibrated with 50 mM HEPES, pH7.5, 0.3 M NaCl. KDR was eluted using the same buffer containing 0.25 M imidazole. Column fractions were analyzed using SDS-PAGE and an ELISA assay (below) which measures kinase activity. The purified KDR was exchanged into 25 mM HEPES, pH7.5, 25 mM NaCl, 5 mM DTT buffer and stored at −80° C.
The disclosed protocol can be adapted for determining activity with respect to a specific RTK. For example, preferred protocols for conducting the ELISA experiments for KDR is provided below. Adaptation of these protocols for determining a compound's activity for other members of the RTK family, as well as non-receptor tyrosine kinases, are well within the abilities of those in the art. […]
Stop with 1M Phosphoric acid. Shake on plate reader.
Read OD immediately at 450 nm
Optimal incubation times and enzyme reaction conditions vary slightly with enzyme preparations and are determined empirically for each lot.
(An ELISA detects its analyte on a solid surface through an enzyme-linked reagent.)

In data set [2] the target is T2, KDR (Homo sapiens, UniProt P35968).
T2 construct: HUVEC cells (from pooled donors) were purchased from Clonetics (San Diego, Calif.) and cultured according to the manufacturer directions; host or cells: HUVEC (pooled donors, passages 3-8)
T2 sequence (P35968 20-1356): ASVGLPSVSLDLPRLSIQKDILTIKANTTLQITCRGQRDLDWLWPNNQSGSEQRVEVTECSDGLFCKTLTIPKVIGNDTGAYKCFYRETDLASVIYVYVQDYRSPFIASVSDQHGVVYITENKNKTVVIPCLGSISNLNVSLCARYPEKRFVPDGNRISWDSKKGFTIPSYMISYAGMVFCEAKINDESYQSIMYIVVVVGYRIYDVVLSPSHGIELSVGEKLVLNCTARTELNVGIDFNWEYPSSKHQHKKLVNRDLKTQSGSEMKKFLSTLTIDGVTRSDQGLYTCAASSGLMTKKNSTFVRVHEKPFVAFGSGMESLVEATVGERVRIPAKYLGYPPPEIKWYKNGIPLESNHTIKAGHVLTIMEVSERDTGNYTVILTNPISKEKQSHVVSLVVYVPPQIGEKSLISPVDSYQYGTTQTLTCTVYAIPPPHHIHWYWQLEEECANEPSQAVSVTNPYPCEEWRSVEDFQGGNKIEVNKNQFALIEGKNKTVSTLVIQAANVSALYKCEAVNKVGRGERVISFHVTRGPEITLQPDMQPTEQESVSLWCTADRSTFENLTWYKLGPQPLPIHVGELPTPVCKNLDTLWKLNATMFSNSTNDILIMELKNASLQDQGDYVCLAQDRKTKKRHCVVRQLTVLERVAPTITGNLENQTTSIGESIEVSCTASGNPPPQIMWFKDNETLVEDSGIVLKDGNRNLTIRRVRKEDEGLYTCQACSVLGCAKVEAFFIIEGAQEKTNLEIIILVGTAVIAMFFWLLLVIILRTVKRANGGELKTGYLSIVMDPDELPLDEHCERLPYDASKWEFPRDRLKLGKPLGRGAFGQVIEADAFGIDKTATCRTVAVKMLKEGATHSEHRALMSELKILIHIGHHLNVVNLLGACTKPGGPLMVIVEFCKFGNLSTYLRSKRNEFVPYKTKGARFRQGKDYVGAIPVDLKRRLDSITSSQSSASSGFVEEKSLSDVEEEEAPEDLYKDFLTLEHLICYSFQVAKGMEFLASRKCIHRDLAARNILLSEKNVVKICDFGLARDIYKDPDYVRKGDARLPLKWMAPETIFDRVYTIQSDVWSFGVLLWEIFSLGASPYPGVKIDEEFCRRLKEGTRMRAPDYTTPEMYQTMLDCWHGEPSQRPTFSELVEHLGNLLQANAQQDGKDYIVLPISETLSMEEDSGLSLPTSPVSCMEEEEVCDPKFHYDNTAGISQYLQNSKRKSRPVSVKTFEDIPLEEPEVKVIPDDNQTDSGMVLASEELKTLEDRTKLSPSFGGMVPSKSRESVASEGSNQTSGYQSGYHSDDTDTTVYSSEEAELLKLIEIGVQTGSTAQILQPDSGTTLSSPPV
Put plainly: VEGF-induced KDR phosphorylation in HUVEC measured by Western blots. The data set is classed as cell-based. Particulars: VEGF(165) 50 ng/ml, Western blot, read-out: cellular IC50 (VEGF-induced KDR phosphorylation). As for the experimental part:
A. VEGF-Induced KDR Phosphorylation in Human Umbilical Vein Cells (HUVEC) as Measured by Western Blots.
1. HUVEC cells (from pooled donors) were purchased from Clonetics (San Diego, Calif.) and cultured according to the manufacturer directions. Only early passages (3-8) were used for this assay. Cells were cultured in 100 mm dishes (Falcon for tissue culture; Becton Dickinson; Plymouth, England) using complete EBM media (Clonetics).
2. For evaluating a compound's inhibitory activity, cells were trypsinized and seeded at 0.5-1.0×10^5 cells/well in each well of 6-well cluster plates (Costar; Cambridge, Mass.).
3. 3-4 days after seeding, plates were 90-100% confluent. Medium was removed from all the wells, cells were rinsed with 5-10 ml of PBS and incubated 18-24 h with 5 ml of EBM base media with no supplements added (i.e., serum starvation).
4. Serial dilutions of inhibitors were added in 1 ml of EBM media (25 uM, 5 uM, or 1 uM final concentration) to cells and incubated for one hour at 37° C. Human recombinant VEGF(165) (R&D Systems) was then added to all the wells in 2 ml of EBM medium at a final concentration of 50 ng/ml and incubated at 37° C. for 10 minutes. Control cells untreated or treated with VEGF only were used to assess background phosphorylation and induction by VEGF.
5. […]
A general note: In western blotting, separated proteins are transferred to a membrane and probed.

The test system of data set [3] is Human umbilical vein endothelial cells (HUVEC). Put plainly: HUVEC mitogenesis assay (tritiated thymidine incorporation). The data set is classed as cell-based. Conditions: mitogenesis induced by VEGF, FGF or Complete Media (stimulus not given). The protocol: B. HUVEC Mitogenesis Assay
Human umbilical vein endothelial cells (HUVEC) were cultured in EGM-Complete Media (endothelial growth media supplemented with 10% FBS, hydrocortisone, epidermal growth factor and bovine brain extract as per the supplier's directions). Cells, media and supplements were purchased from Clonetics (San Diego, Calif.). The HUVEC Mitogenesis Assay was used to measure inhibition of mitogenesis induced by VEGF, FGF or Complete Media. Cells were harvested by trypsinization, washed once and suspended in Complete Media (CM) at a concentration of 5,000 cells/0.15 ml. Cells were seeded into 96-well plates at 5,000 cells/well and incubated at 37° C. for 24 hours. Cells were washed once with serum-free media (SFM) and incubated under serum-free conditions for 24 hours. Non-serum starved control wells were cultured with CM during this period. Test compounds were prepared as 10 mM stock solutions in DMSO, diluted in SFM and added to wells over a concentration range (0.005-50 μM final concentration). Cells were incubated for 1 hour prior to addition of 50 ng/ml VEGF or FGF (R & D Systems, Minneapolis, Minn.). Complete media stimulated wells received the test compound and stimulus simultaneously. […] Plates were harvested onto filter mats with a Tomtec Harvester and counted with a Betaplate liquid scintillation counter (Wallac).
A general note: Incorporation of labelled thymidine or its analogues reports DNA synthesis.

Structures are written as SMILES. A value given as a limit tells only on which side of the number the result lay.

T1 sequence (P35968 789-1354): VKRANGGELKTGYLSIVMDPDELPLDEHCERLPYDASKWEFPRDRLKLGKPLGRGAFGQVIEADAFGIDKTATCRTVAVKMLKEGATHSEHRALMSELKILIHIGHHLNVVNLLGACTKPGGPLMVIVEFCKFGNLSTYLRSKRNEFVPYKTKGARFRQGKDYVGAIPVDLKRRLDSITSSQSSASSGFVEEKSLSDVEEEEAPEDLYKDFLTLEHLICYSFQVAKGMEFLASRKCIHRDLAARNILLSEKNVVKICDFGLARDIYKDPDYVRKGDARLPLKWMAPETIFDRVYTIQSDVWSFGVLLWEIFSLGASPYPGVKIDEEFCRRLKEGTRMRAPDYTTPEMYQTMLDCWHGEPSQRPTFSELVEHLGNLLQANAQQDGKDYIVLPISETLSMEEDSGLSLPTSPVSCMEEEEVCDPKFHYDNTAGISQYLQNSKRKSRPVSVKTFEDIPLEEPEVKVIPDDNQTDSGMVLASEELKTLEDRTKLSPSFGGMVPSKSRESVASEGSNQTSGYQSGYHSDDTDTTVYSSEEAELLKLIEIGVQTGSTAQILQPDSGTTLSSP

In the case of `Cc1c2c(nn1-c1ccccc1)-c1ccccc1C2=O`, the half-inhibitory concentration (IC50) in data set [1] is greater than 100 µM.
In turn, `O=C1c2ccccc2-c2[nH]nc(-c3ccc(Cl)cc3)c21` [Example 3, 3-(4-chlorophenyl)indeno[1,2-c]pyrazol-4(1H)-one] gave a melting point greater than 330 °C.
Still for that read-out and setting: with `COc1ccc(-c2n[nH]c3c2C(O)c2ccccc2-3)cc1OC` (stereo not shown) [Example 6, 3-(3,4-dimethoxyphenyl)-1,4-dihydroindeno[1,2-c]pyrazol-4-ol] the figure was 197 to 199 °C.
As for `O=C1c2ccccc2-c2[nH]nc(-c3ccccc3)c21` [3-phenylindeno[1,2-c]pyrazol-4(1H)-one], the IC50 in data set [2] was 3 µM; in data set [3], less than 0.1 µM; in data set [1] it was 0.15 µM.
Turning to `OC1c2ccccc2-c2[nH]nc(-c3ccccc3)c21` (stereo not shown) [Example 7, 3-phenyl-1,4-dihydroindeno[1,2-c]pyrazol-4-ol], the melting point was 269 to 272 °C.
Still for that read-out and setting: then `COc1cc(-c2n[nH]c3c2C(=O)c2ccccc2-3)cc(OC)c1OC` [Example 2, 3-(3,4,5-Trimethoxyphenyl)indeno[1,2-c]pyrazol-4(1H)-one], with 268 to 272 °C; and `CN1NC(c2ccccc2)C2=C1c1ccccc1C2=O` (stereo not shown) [Example 5, 1-methyl-3-phenylindeno[1,2-c]pyrazol-4(2H)-one], with 187 to 188 °C.
The compound `C1=NC(n2nc(-c3ccccc3)cc2-c2ccccc2)NC1` (stereo not shown) yielded an IC50 in data set [1] greater than 100 µM.
